One test has as its target T1, human ETA receptor (Homo sapiens, UniProt P25101).
T1 construct: expressed in transfected cells; host or cells: CHO cells
T1 sequence (P25101 21-427): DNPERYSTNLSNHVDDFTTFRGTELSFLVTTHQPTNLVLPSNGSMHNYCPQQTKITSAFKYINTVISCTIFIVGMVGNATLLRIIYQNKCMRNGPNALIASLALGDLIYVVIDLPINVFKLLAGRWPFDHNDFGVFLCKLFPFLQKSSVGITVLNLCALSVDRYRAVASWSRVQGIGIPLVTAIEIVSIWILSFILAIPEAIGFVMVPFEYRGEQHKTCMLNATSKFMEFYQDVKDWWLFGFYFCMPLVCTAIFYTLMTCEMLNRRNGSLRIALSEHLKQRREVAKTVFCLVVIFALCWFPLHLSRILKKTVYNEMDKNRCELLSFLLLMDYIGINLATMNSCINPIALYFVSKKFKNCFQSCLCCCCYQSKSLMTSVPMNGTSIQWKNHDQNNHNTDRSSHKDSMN
Briefly: ETA receptor binding assay ([125I]-ET1) on membranes of CHO cells expressing cloned human ETA receptor. The note with it: Table III.

A further test has as its target T2, ETB receptor (Cavia porcellus, UniProt H0VTF3).
T2 construct: Guinea pig cerebella were homogenized; from tissue; host or cells: guinea pig cerebellum membranes
T2 sequence (H0VTF3 27-415): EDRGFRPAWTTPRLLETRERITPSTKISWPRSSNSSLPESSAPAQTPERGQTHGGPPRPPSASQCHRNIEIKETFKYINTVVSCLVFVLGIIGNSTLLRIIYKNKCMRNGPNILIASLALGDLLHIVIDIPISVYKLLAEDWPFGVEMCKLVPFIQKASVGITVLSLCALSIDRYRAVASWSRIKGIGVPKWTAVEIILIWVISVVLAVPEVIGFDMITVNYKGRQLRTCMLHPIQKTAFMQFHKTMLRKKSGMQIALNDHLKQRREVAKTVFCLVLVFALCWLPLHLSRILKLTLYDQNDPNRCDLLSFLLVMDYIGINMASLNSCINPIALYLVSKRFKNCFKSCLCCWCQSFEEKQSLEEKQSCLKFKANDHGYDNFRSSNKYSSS
Briefly: ETB receptor binding assay ([125I]-RZ3) on guinea pig cerebellar membranes. The note with it: Table III.

A further test relates to DU-145 prostate tumor. Briefly: DU-145 Model: human prostate (HTB 81) tumor fragments implanted subcutaneously in nude mice. It is filed as in vivo. How it is done: For example, human tumors which have been grown in nude mice can be transplanted into new recipient mice using tumor fragments which are about 50 mg in size. The day of transplantation is designated as day 0. Five to fifteen days later, the mice are treated with the test compounds given as an intravenous or intraperitoneal injection, in groups of five to ten mice at each dose. Compounds are given daily for either 5, 10 or 15 days, at dosed from 0.1-1000 mg/kg of body weight.
Tumor diameters and body weights are measured periodically. Tumor mass is calculated using the diameters measured with Vernier calipers, and the formula:
(length×width2)/2=mg of tumor weight
Mean tumor weights are calculated for each treatment group relative to the untreated control tumors. The DU-145 Model is a specific example of this type of assay and is described below.
Human tumor fragments from prostate (HTB 81), which had been grown in nude mice were implanted subcutaneously via trochar, in the dorsal side of new recipient nude mice, as is well known in the art. The day of implantation is designated as day 0.
Treatment was commenced on day 11 post implantation using Compound I-1 of Table I. There were 6 mice in each treatment group with the mode of administration and amounts administered (mg/kg of body weight) described in Table XI. Compound I-1 was administered once a day for 10 days commencing, as earlier stated, at day 11 post implantation (Q1D×10:11).

SMILES strings stand for the structures.

Experimental for ETB receptor: (§1) Cloned human ETA receptor-expressing CHO cells and guinea pig cerebellar membranes with >60% ETB compared with ETA receptors were used for binding studies.
Guinea pig cerebella were homogenized in a Potter-Elvejhem homogenizer and membranes were obtained by differential centrifugation at 1000×g for 10 min. and repeated centrifugation of the supernatant at 20,000×g for 10 min.
(§2) The nonspecific binding was determined using 10^-7 M ET1. After 30 min., the free and bound radioligand were separated by filtration through GF/B glass fiber filters (Whatman, England) on a Skatron cell collector (Skatron, Lier, Norway) and the filters were washed with ice-cold Tris-HCl buffer, pH 7.4 with 0.2% BSA. The radioactivity collected on the filters was quantified using a Packard 2200 CA liquid scintillation counter.
Experimental for human ETA receptor: as §1
The ETA receptor-expressing CHO cells were grown in F12 medium containing 10% fetal calf serum, 1% glutamine, 100 U/ml penicillin and 0.2% streptomycin (Gibco BRL, Gaithersburg, Md., USA). After 48 h, the cells were washed with PBS and incubated with 0.05% trypsin-containing PBS for 5 min. Neutralization was then carried out with F12 medium, and the cells were collected by centrifugation at 300×g. To lyze the cells, the pellet was briefly washed with lysis buffer (5 mM Tris-HCl, pH 7.4 with 10% glycerol) and then incubated at a concentration of 10^7 cells/ml of lysis buffer at 4° C. for 30 min. The membranes were centrifuged at 20,000×g for 10 min., and the pellet was stored in liquid nitrogen.
as §2
The Ki values shown in Table A were determined by non-linear regression analysis using the LIGAND program.

In the case of `CCCOC(c1ccccc1)(c1ccccc1)C(Oc1nc(OC)cc(OC)n1)C(=O)O` (stereo not drawn) [Compound I-12], on human ETA receptor, the Ki came to 0.019 µM.
The same measure, in the same setting: the value for `COc1cc(OC)nc(OC(C(=O)O)C(OC)(c2ccccc2)c2ccccc2)n1` (stereo not drawn) [Compound I-2, 2-(4,6-Dimethoxy-pyrimidin-2-yloxy)-3-methoxy-3,3-diphenylpropionic acid] was 0.006 µM.
Still for that read-out and setting: the value for `CCOC(c1ccccc1)(c1ccccc1)C(Oc1nc(OC)cc(OC)n1)C(=O)O` (stereo not drawn) [Compound I-4] was 0.007 µM.
For the molecule `COc1cc(OC)nc(OC(C(=O)O)C(OC)(c2ccc(F)cc2)c2ccc(F)cc2)n1` (stereo not drawn) [Compound I-60], the results for the Ki on human ETA receptor and on ETB receptor were 0.033 µM and 0.97 µM, respectively.
`COC(=O)C(Oc1nc(OC)cc(OC)n1)C(OC)(c1ccccc1)c1ccccc1` (stereo not drawn) [Compound I-1, Methyl 2-(4,6-dimethoxy-pyrimidin-2-yloxy)-3-methoxy-3,3-diphenylpropionate]: the “Days for Tumor Weight = 1000 mg” value in the test with DU-145 prostate tumor (100 mg/kg IV, Q1Dx10:11) was 39.3 days; with DU-145 prostate tumor (150 mg/kg IP, Q1DX10:11), 59.3 days; with DU-145 prostate tumor (150 mg/kg IV, Q1DX10:11), 37.4 days; in the test on DU-145 prostate tumor (220 mg/kg IP, Q1DX10:11), 50.9 days. The “Mean Tumor Weight (MTW) on Day 33” value with DU-145 prostate tumor (100 mg/kg IV, Q1Dx10:11) stood at 561 mg; in the test on DU-145 prostate tumor (150 mg/kg IP, Q1DX10:11) it was 407 mg; with DU-145 prostate tumor (150 mg/kg IV, Q1DX10:11) it was 793 mg; in the test on DU-145 prostate tumor (220 mg/kg IP, Q1DX10:11), 470 mg. The “MTW % T/C” value is listed as 45.54% in the test with DU-145 prostate tumor (Day 33, 100 mg/kg IV, Q1Dx10:11); 33.04% in the test with DU-145 prostate tumor (Day 33, 150 mg/kg IP, Q1DX10:11); 64.37% in the test on DU-145 prostate tumor (Day 33, 150 mg/kg IV, Q1DX10:11); 38.15% in the test with DU-145 prostate tumor (Day 33, 220 mg/kg IP, Q1DX10:11). Further, in the test with DU-145 prostate tumor (all doses, IV and IP), the “response to administration (reduction in the %T/C Mean Tumor Weight)” value is given as “all treatment groups responded”.

As a reminder, the Ki is the dissociation constant of the complex between target and ligand, obtained from inhibition or displacement. Low values mean tighter binding, high ones weaker binding.
